Assay results from patent US10844049B2, “GLP-1R agonists and uses thereof” (QILU REGOR THERAPEUTICS INC., priority 2018, dated 2020).

target: GLP1R (Homo sapiens, UniProt P43220); experiment: GLP-1R/β-Arrestin recruitment assay (PathHunter eXpress GLP1R CHO-K1 β-Arrestin GPCR Assay); type: cell-based; set-up: host or cells: PathHunter CHO-K1 GLP1R β-Arrestin cells; conditions: averaged Bmax, percentage of control GLP-1 (7-37), highest concentration tested
Source text: GLP-1R agonist activity with respect to β-arrestin recruitment can be determined with a cell-based functional assay using PathHuntcr eXpress GLP1R CHO-K1 β-Arrestin GPCR Assay kit (DiscovcrX Cat #93-0300E2CP0M).
The PathHunter β-Arrestin GPCR assay technology utilizes a β-galactosidase (β-gal) enzyme that is split into two fragments, the smaller Enzyme Donor (ED) and the larger Enzyme Acceptor (EA). These fragments can be fused to two proteins that may interact with each other, such as EA-β-Arrestin and ED-GLP-1R. The fusions can be stably expressed in a test cell line, such as the PathHunter CHO-K1 GLP1R β-Arrestin cells described below.
Independently, these fragment fusions have no β-gal activity; however, in solution or in a living cell, they can be brought together and complement to form an active β-gal enzyme due to the interaction between the fused proteins, thus generating a chemiluminescent signal in the presence of a suitable β-gal substrate.
In this experiment, PathHunter CHO-K1 GLP1R β-Arrestin cells from the assay kit were plated at a density of 1000 or 2000 cells/20 μl/well in a 384-well white/clear bottom plates (Greiner Cat #781098). Frozen cells were quickly thawed and 10 mL of cell plating medium (provided by the kit) was added to thawed cells. Cells were stored in a 37° C. incubator under 5% CO2 and kept for approximately 48 hours until ready to ran the assay.
Reference and test compounds were dissolved in 100% DMSO. 5× concentration of an agonist was prepared in serum free DMEM (Thermo Cat #11965). 5 μL of this solution was added to 20 μL cell medium in assay plate for a final top concentration of 10 μM. Plates were then incubated at 37° C. under 5% CO2 for 90 min.
Following 90 min incubation, detection reagents were made up by combining 1 part Galacton Star Substrate with 5 parts Emerald II™ Solution, and 19 parts of PathHunter Cell Assay Buffer, respectively. 12.5 μL detection reagent was added to each well. The plates were then incubated at room temperature in dark for 60 min. Plates were then read on Envision for 0.1 sec/well.
EC50 determinations were made from agonist dose-response curves analyzed with a curve fitting program using a 4-parameter logistic dose response equation.
Cells were plated at a density of 1000 or 2000 cells/20 μL/well. Frozen cells were quickly thawed and added to 10 mL of cell plating medium. Cells were stored in a 37° C. incubator under 5% CO2 and left for approximately 48 hours until ready to run the assay.
• 1) Reference agonist compound GLP1 (7-37): dissolved with DMSO to make 1 mM stock solutions, aliquoted and stored at −80° C. • 2) Test compounds (such as the compounds of the invention) came solubilized in 100% DMSO.
Prepare 10× concentration of an agonist in serum free DMEM, and add all solutions into the compound plate. 2.5 μL of this solution was added to 20 μL cell medium in assay plate for a final top concentration of 10 μM. Plates were incubated at 37° C. under 5% CO2 for 30 min. An additional 2.5 μL of Buffer was added to the entire plate for agonist mode and incubated at 37° C. for another 90 min.
Following 90 min incubation, detection reagents were made up as described. 12.5 μL was added to all wells. The plates were then incubated at room temperature in dark for 60 min. Plates were then read on Envision for 0.1 sec/well.
Data analysis: GraphPad Prism 6 was used for establishment of progression curve. EC50S or IC50s were determined by 4-parameter logistic dose response equation.

Chain of GLP1R (P43220 24-463): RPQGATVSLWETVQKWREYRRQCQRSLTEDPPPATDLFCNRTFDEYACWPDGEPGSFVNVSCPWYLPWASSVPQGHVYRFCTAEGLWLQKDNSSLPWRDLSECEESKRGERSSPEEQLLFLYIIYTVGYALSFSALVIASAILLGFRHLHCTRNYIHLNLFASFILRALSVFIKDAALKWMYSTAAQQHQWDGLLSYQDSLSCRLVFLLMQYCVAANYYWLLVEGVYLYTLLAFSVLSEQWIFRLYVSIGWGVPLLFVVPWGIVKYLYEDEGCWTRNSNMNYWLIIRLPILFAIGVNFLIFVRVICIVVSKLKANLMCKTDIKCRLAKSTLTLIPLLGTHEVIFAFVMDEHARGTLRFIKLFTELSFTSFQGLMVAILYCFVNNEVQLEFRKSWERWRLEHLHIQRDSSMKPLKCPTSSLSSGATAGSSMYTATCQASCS

| Compound | Bmax (POC) |
| --- | --- |
| O=C(O)c1ccc2nc(CN3CC=C(c4cncc(OCc5ccc(Cl)cc5F)n4)CC3)n(C[C@@H]3CCO3)c2c1 [Compound 34, (S)-2-((4-(6-(4-chloro-2-fluorobenzyloxy)pyrazin-2-yl)-5,6-dihydropyridin-1(2H)-yl)methyl)-1-(oxetan-2-ylmethyl)-1 h-benzo[d]imidazole-6-carboxylic acid] | 20.2 ± 1.89 |
| O=C(O)c1ccc2nc(CN3CC=C(c4cccc(OCc5ccc(Cl)cc5F)n4)CC3)n(C[C@@H]3CCO3)c2c1 [Compound 221, (S)-2-((6-((4-chloro-2-fluorobenzyl)oxy)-3′,6′-dihydro-[2,4′-bipyridin]-1′(2′H)-yl)methyl)-1-(oxetan-2-ylmethyl)-1H-benzo[d]imidazole-6-carboxylic acid] | 35.6 ± 5.38 |
| O=C(O)c1ccc2nc(CN3CCC(c4ccnc(OCc5ccc(Cl)cc5F)n4)CC3)n(C[C@@H]3CCO3)c2c1 [Compound 18, (S)-2-((4-(2-((4-chloro-2-fluorobenzyl)oxy)pyrimidin-4-yl)piperidin-1-yl)methyl)-1-(oxetan-2-ylmethyl)-1H-benzo[d]imidazole-6-carboxylic acid] | 26.2 ± 1.55 |
| O=C(O)c1ccc2nc(CN3CC=C(c4ccc(F)c(OCc5ccc(Cl)cc5F)c4)CC3)n(C[C@@H]3CCO3)c2c1 [Compound 29, (S)-2-((4-(3-((4-chloro-2-fluorobenzyl)oxy)-4-fluorophenyl)-3,6-dihydropyridin-1(2H)-yl)methyl)-1-(oxetan-2-ylmethyl)-1 h-benzo[d]imidazole-6-carboxylic acid] | 36.6 ± 7.77 |
| O=C(O)c1ccc2nc(CN3CC=C(c4ccc(F)c(OCc5ccc(Cl)cc5F)c4)CC3)n(C[C@@H]3CCO3)c2c1F [Compound 238, (S)-2-((4-(3-((4-chloro-2-fluorobenzyl)oxy)-4-fluorophenyl)-3,6-dihydropyridin-1(2H)-yl)methyl)-7-fluoro-1-(oxetan-2-ylmethyl)-1H-benzo[d]imidazole-6-carboxylic acid] | 55.8 ± 14.1 |
| O=C(O)c1ccc2nc(CN3CCC(c4cccc(OCc5ccc(Cl)cc5F)c4)CC3)n(C[C@@H]3CCO3)c2c1 [Compound 239, (S)-2-((4-(3-((4-chloro-2-fluorobenzyl)oxy)phenyl)piperidin-1-yl)methyl)-1-(oxetan-2-ylmethyl)-1H-benzo[d]imidazole-6-carboxylic acid] | 25.6 ± 5.31 |
| O=C(O)c1ccc2nc(CN3CC=C(c4cccc(OCc5ccc(Cl)cc5F)c4)CC3)n(C[C@@H]3CCO3)c2c1F [Compound 237, (S)-2-((4-(3-((4-chloro-2-fluorobenzyl)oxy)phenyl)-3,6-dihydropyridin-1(2H)-yl)methyl)-7-fluoro-1-(oxetan-2-ylmethyl)-1H-benzo[d]imidazole-6-carboxylic acid] | 37.9 ± 4.66 |
| O=C(O)c1ccc2nc(CN3CC=C(c4ccc(F)c(OCc5ccc(Cl)cc5F)c4)CC3)n(C[C@@H]3CCO3)c2n1 [Compound 236, (S)-2-((4-(3-((4-chloro-2-fluorobenzyl)oxy)-4-fluorophenyl)-5,6-dihydropyridin-1(2H)-yl)methyl)-3-(oxetan-2-ylmethyl)-3H-imidazo[4,5-b]pyridine-5-carboxylic acid] | 40.3 ± 4.10 |
| O=C(O)c1ccc2nc(CN3CC=C(c4cccc(OCc5ccc(Cl)cc5F)c4)CC3)n(C[C@@H]3CCO3)c2n1 [Compound 224, (S)-2-((4-(3-((4-chloro-2-fluorobenzyl)oxy)phenyl)-3,6-dihydropyridin-1(2H)-yl)methyl)-3-(oxetan-2-ylmethyl)-3H-imidazo[4,5-b]pyridine-5-carboxylic acid] | 33.4 ± 3.78 |
| N#Cc1ccc(COc2cncc(C3CCN(Cc4nc5ccc(C(=O)O)cc5n4C[C@@H]4CCO4)CC3)n2)c(F)c1 [Compound 22, (S)-2-((4-(6-(4-cyano-2-fluorobenzyloxy)pyrazin-2-yl)piperidin-1-yl)methyl)-1-(oxetan-2-ylmethyl)-1 h-benzo[d]imidazole-6-carboxylic acid] | 10.9 ± 0.0317 |
| O=C(O)c1ccc2nc(CN3CC=C(c4cccc(OCc5ccc(-n6ccnc6)cc5)n4)CC3)n(C[C@@H]3CCO3)c2n1 [Compound 245, (S)-2-((4-(6-(4-(1H-imidazol-1-yl)benzyloxy)pyridin-2-yl)-5,6-dihydropyridin-1(2H)-yl)methyl)-3-(oxetan-2-ylmethyl)-3H-imidazo[4,5-b]pyridine-5-carboxylic add] | 38.0 ± 6.42 |
| N#Cc1ccc(COc2nc(C3=CCN(Cc4nc5ccc(C(=O)O)cc5n4C[C@@H]4CCO4)CC3)ccc2F)c(F)c1 [Compound 222, (S)-2-((6-((4-cyano-2-fluorobenzyl)oxy)-5-fluoro-3′,6′-dihydro-[2,4′-bipyridin]-1′(2′H)-yl)methyl)-1-(oxetan-2-ylmethyl)-1H-benzo[d]imidazole-6-carboxylic acid] | 31.1 ± 4.67 |
| O=C(O)c1ccc2nc(CN3CC=C(c4cccc(OCc5ccc(Cl)cc5F)c4)CC3)n(C[C@@H]3CCO3)c2c1 [Compound 28, (S)-2-((4-(3-((4-chloro-2-fluorobenzyl)oxy)phenyl)-3,6-dihydropyridin-1(2H)-yl)methyl)-1-(oxetan-2-ylmethyl)-1 h-benzo[d]imidazole-6-carboxylic add] | 28.5 ± 6.36 |
| O=C(O)c1ccc2nc(CN3CC=C(c4cccc(OCc5ccc(-c6cccnc6)cc5)n4)CC3)n(C[C@@H]3CCO3)c2c1 [Compound 242, (S)-1-(oxetan-2-ylmethyl)-2-((6-((4-(pyridin-3-yl)benzyl)oxy)-3′,6′-dihydro-[2,4′-bipyridin]-1′(2′H)-yl)methyl)-1H-benzo[d]imidazole-6-carboxylic add] | 22.5 ± 4.32 |
| O=C(O)c1ccc2nc(CN3CC=C(c4ccnc(OCc5ccc(Cl)cc5F)n4)CC3)n(C[C@@H]3CCO3)c2c1 [Compound 35, (S)-2-((4-(2-((4-chloro-2-fluorobenzyl)oxy)pyrimidin-4-yl)-3,6-dihydropyridin-1(2H)-yl)methyl)-1-(oxetan-2-ylmethyl)-1H-benzo[d]imidazole-6-carboxylic add] | 19.9 ± 4.44 |
| O=C(O)c1ccc2nc(CN3CCC(c4cncc(OCc5ccc(Cl)cc5F)n4)CC3)n(C[C@@H]3CCO3)c2c1 [Compound 21, (S)-2-((4-(6-(4-chloro-2-fluorobenzyloxy)pyrazin-2-yl)piperidin-1-yl)methyl)-1-(oxetan-2-ylmethyl)-1 h-benzo[d]imidazole-6-carboxylic acid] | 19.0 ± 0.982 |
| N#Cc1ccc(COc2cccc(C3=CCN(Cc4nc5ccc(C(=O)O)cc5n4C[C@@H]4CCO4)CC3)n2)c(F)c1 [Compound 19, (S)-2-((4-(6-(4-cyano-2-fluorobenzyloxy)pyridin-2-yl)-5,6-dihydropyridin-1(2H)-yl)methyl)-1-(oxetan-2-ylmethyl)-1 h-benzo[d]imidazole-6-carboxylic add] | 26.0 ± 2.78 |
| N#Cc1ccc(COc2cccc(C3=CCN(Cc4nc5ccc(C(=O)O)nc5n4C[C@@H]4CCO4)CC3)n2)c(F)c1 [Compound 225, (S)-2-((6-((4-cyano-2-fluorobenzyl)oxy)-3′,6′-dihydro-[2,4′-bipyridin]-1′(2′H)-yl)methyl)-3-(oxetan-2-ylmethyl)-3H-imidazo[4,5-b]pyridine-5-carboxylic add] | 32.5 ± 3.55 |
| N#Cc1ccc(COc2cncc(C3=CCN(Cc4nc5ccc(C(=O)O)cc5n4C[C@@H]4CCO4)CC3)n2)c(F)c1 [Compound 23, (S)-2-((4-(6-(4-cyano-2-fluorobenzyloxy)pyrazin-2-yl)-5,6-dihydropyridin-1(2H)-yl)methyl)-1-(oxetan-2-ylmethyl)-1 h-benzo[d]imidazole-6-carboxylic acid] | 18.2 ± 1.51 |
